# Reference: ChEMBL document CHEMBL1201862, “PubChem BioAssay data set” (2004)
#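 Test compounds were applied to cells in 96-well plates for 48 hours at 5 doses. GI50 = concentration required for 50% inhibition of growth.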 Active and inactive are the calls of the source. No stated cut-off is given here; in the data, active = GI50 up to about 1.1 µM and inactive = higher.
# Legend:
# Assay in all cases: NCI-60 cell line screen, 48 h
# [1] = system: OVCAR-3
# [2] = system: OVCAR-4
# [3] = system: IGROV-1
# [4] = system: HT-29
# [5] = system: SK-MEL-28
# [6] = system: SNB-75
# [7] = system: LOX IMVI
# [8] = system: U-251
# [9] = system: SNB-19
# [10] = system: NCI-H522
# [11] = system: DU-145
# [12] = system: PC-3
# [13] = system: UACC-257
# [14] = system: SK-MEL-5
# [15] = system: UACC-62
# [16] = system: NCI-H226
# [17] = system: CAKI-1
# [18] = system: RXF 393
# [19] = system: SF-268
# [20] = system: SN12C
# [21] = system: MDA-N
# [22] = system: K562
# [23] = system: BT-549
# [24] = system: HCT-15
# [25] = system: HCT-116
# [26] = system: A549
# [27] = system: A498
# [28] = system: UO-31
# [29] = system: NCI-H460
# [30] = system: MDA-MB-435
# [31] = system: M14
# [32] = system: OVCAR-5
# [33] = system: CCRF-CEM
# [34] = system: KM12
# [35] = system: SR
# [36] = system: EKVX
# [37] = system: HOP-62
# [38] = system: Malme-3M
# [39] = system: SK-MEL-2
# [40] = system: TK-10
# [41] = system: MDA-MB-231
# [42] = system: NCI/ADR-RES
# [43] = system: ACHN
# [44] = system: MOLT-4
# [45] = system: T47D
# [46] = system: COLO 205
# [47] = system: HCC 2998
# [48] = system: SW-620
# [49] = system: MCF7
# [50] = system: 786-0
# [51] = system: SF-295
# [52] = system: OVCAR-8
# [53] = system: Hs-578T
# [54] = system: SK-OV-3
# [55] = system: RPMI-8226
# [56] = system: SF-539
# [57] = system: NCI-H23
# [58] = system: HL-60
# [59] = system: HOP-92
smiles,measurement,setting,value
O/N=C1/Nc2ccccc2C(=S)N2CSCC12 (stereo unspecified),GI50,[1],> 100 µM (inactive)
same,GI50,[2],> 100 µM (inactive)
same,GI50,[3],> 100 µM (inactive)
same,GI50,[4],36.9 µM (inactive)
same,GI50,[5],> 100 µM (inactive)
same,GI50,[6],16.4 µM (inactive)
same,GI50,[7],62.8 µM (inactive)
same,GI50,[8],> 100 µM (inactive)
same,GI50,[9],50.4 µM (inactive)
same,GI50,[10],37 µM (inactive)
same,GI50,[11],> 100 µM (inactive)
same,GI50,[12],73.8 µM (inactive)
same,GI50,[13],> 100 µM (inactive)
same,GI50,[14],23.4 µM (inactive)
same,GI50,[15],87.5 µM (inactive)
same,GI50,[16],> 100 µM (inactive)
same,GI50,[17],> 100 µM (inactive)
same,GI50,[18],> 100 µM (inactive)
same,GI50,[19],78 µM (inactive)
same,GI50,[20],34 µM (inactive)
same,GI50,[21],18.3 µM (inactive)
same,GI50,[22],22.8 µM (inactive)
same,GI50,[23],> 100 µM (inactive)
same,GI50,[24],> 100 µM
same,GI50,[25],43.6 µM (inactive)
same,GI50,[26],83.2 µM (inactive)
same,GI50,[27],68.7 µM (inactive)
same,GI50,[28],> 100 µM (inactive)
same,GI50,[29],17.3 µM (inactive)
same,GI50,[30],19.4 µM (inactive)
same,GI50,[31],81.3 µM (inactive)
same,GI50,[32],> 100 µM (inactive)
same,GI50,[33],20.2 µM (inactive)
same,GI50,[34],33 µM (inactive)
same,GI50,[35],22.9 µM (inactive)
same,GI50,[36],> 100 µM (inactive)
same,GI50,[37],> 100 µM (inactive)
same,GI50,[38],> 100 µM (inactive)
same,GI50,[39],> 100 µM (inactive)
same,GI50,[40],> 100 µM (inactive)
same,GI50,[41],> 100 µM (inactive)
same,GI50,[42],> 100 µM (inactive)
same,GI50,[43],> 100 µM (inactive)
same,GI50,[44],> 100 µM (inactive)
same,GI50,[45],54.2 µM (inactive)
same,GI50,[46],41.9 µM (inactive)
same,GI50,[47],32.4 µM (inactive)
same,GI50,[48],35.6 µM (inactive)
same,GI50,[49],52.5 µM (inactive)
same,GI50,[50],58.2 µM (inactive)
same,GI50,[51],63.1 µM (inactive)
same,GI50,[52],> 100 µM (inactive)
same,GI50,[53],> 100 µM (inactive)
same,GI50,[54],> 100 µM (inactive)
same,GI50,[55],> 100 µM (inactive)
COc1cc(OC)c2nccc(NCCCN(C)C)c2c1[N+](=O)[O-],GI50,[1],49.3 µM (inactive)
same,GI50,[2],> 100 µM (inactive)
same,GI50,[3],49.5 µM (inactive)
same,GI50,[4],35 µM (inactive)
same,GI50,[5],> 100 µM (inactive)
same,GI50,[6],30.9 µM (inactive)
same,GI50,[7],> 100 µM (inactive)
same,GI50,[8],> 100 µM (inactive)
same,GI50,[9],> 100 µM (inactive)
same,GI50,[56],45.7 µM (inactive)
same,GI50,[10],> 100 µM (inactive)
same,GI50,[11],> 100 µM (inactive)
same,GI50,[12],> 100 µM (inactive)
same,GI50,[13],58.3 µM (inactive)
same,GI50,[14],> 100 µM (inactive)
same,GI50,[15],> 100 µM (inactive)
same,GI50,[17],> 100 µM (inactive)
same,GI50,[19],> 100 µM (inactive)
same,GI50,[20],> 100 µM (inactive)
same,GI50,[21],> 100 µM (inactive)
same,GI50,[22],87.9 µM (inactive)
same,GI50,[23],> 100 µM (inactive)
same,GI50,[24],> 100 µM
same,GI50,[25],62.4 µM (inactive)
same,GI50,[26],> 100 µM (inactive)
same,GI50,[27],> 100 µM (inactive)
same,GI50,[28],> 100 µM (inactive)
same,GI50,[29],65.3 µM (inactive)
same,GI50,[30],> 100 µM (inactive)
same,GI50,[31],27.3 µM (inactive)
same,GI50,[32],> 100 µM (inactive)
same,GI50,[33],> 100 µM (inactive)
same,GI50,[34],> 100 µM (inactive)
same,GI50,[35],24.7 µM (inactive)
same,GI50,[57],> 100 µM (inactive)
same,GI50,[58],39.3 µM (inactive)
same,GI50,[59],61.1 µM (inactive)
same,GI50,[37],> 100 µM (inactive)
same,GI50,[38],55.1 µM (inactive)
same,GI50,[39],> 100 µM (inactive)
same,GI50,[40],> 100 µM (inactive)
same,GI50,[41],> 100 µM (inactive)
same,GI50,[42],> 100 µM (inactive)
same,GI50,[43],> 100 µM (inactive)
same,GI50,[44],> 100 µM (inactive)
same,GI50,[45],> 100 µM (inactive)
same,GI50,[46],34.1 µM (inactive)
same,GI50,[47],> 100 µM (inactive)
same,GI50,[48],95.9 µM (inactive)
same,GI50,[49],> 100 µM (inactive)
same,GI50,[50],> 100 µM (inactive)
same,GI50,[51],> 100 µM (inactive)
same,GI50,[52],> 100 µM (inactive)
same,GI50,[53],> 100 µM (inactive)
same,GI50,[54],> 100 µM (inactive)
same,GI50,[55],> 100 µM (inactive)
